In brackets after ≈: the same amount, converted by molar mass. Where a name gives a salt, the structure may show the parent alone. Read-outs that look alike come from different tables or passages of the source.
Legend:
Type in all cases: physicochemical
[1] = Evaluation of solubility in biorelevant media (water, SGF, FaSSIF, FeSSIF), HPLC; settings: for Solubility-1 h Concentration / Solubility-24 h Concentration / solubility at 1 h / solubility at 24 h: 37° C.; for solubility at 1 h / solubility at 24 h: 37 °C, thermodynamic from solid; for solubility at 1 h: read-out: Solubility-1 h Concentration; for solubility at 24 h: read-out: Solubility-24 h Concentration
Experimental: Solubility in biorelevant media, such as SGF, FeSSIF, and FaSSIF was confirmed with respect to the free base and the hydrochloride salt, succinate salt and L-tartrate salt of 1-(5-(2-fluorophenyl)-4-methoxy-1-((6-methoxypyridin-3-yl)sulfonyl)-1H-pyrrole-3-yl)-N-methylmethanamine that was confirmed through the salt screening analysis result.
Buffers for the biorelevant media were prepared as follows.
Water: Laboratory Milli-Q purified water.
SGF (Stimulated Gastric Fluid): 2.0 g of sodium chloride and 7 mL of hydrochloric acid dissolved in 1000 mL of water were used.
FaSSIF (Fasted State Simulated Intestinal Fluid): A commercial product purchased from Bio-Relevant Company and manufactured according to instructions was used.
FeSSIF (Fed State Simulated Intestinal Fluid): A commercial product purchased from Bio-Relevant Company and prepared according to instructions was used.
For the experiment, about 10 mg of a compound was weighed into each glass vial and then added with 1 mL of a medium (final concentration of 10 mg/mL). Then, the sample was continuously stirred in a magnetic stirrer at 37° C. at a speed of 200 rpm. After stirring for 1 hour and 24 hours, 0.5 mL of the sample solution was transferred to a 1.5 mL centrifuge tube and centrifuged at 12,000 rpm for 5 minutes. The supernatant was diluted with suitable methanol and analyzed by HPLC.
The free acid was selected as a standard sample to quantify the solubility, and about 10 mg of the free acid was weighed into a 25 mL flask and dissolved in methanol to the […].

[2] = Evaluation of drug stability under stress conditions (high temperature open condition 60° C.), XRPD and HPLC; settings: 60° C. open; for HPLC peak RT 10.063 min, RRT 1.00 (main peak): in %; for stability under harsh conditions (in words): up to week 2
Experimental: 10 mg and 40 mg of the free base and the hydrochloride salt of 1-(5-(2-fluorophenyl)-4-methoxy-1-((6-methoxypyridin-3-yl)sulfonyl)-1H-pyrrole-3-yl)-N-methylmethanamine were weighed into each vial and stored under stress conditions to investigate stability.
The stress conditions are as follows:
High temperature open condition: 60° C.;
The bottle neck of the vial was wrapped with aluminum foil with pinholes to avoid contamination, and the samples were analyzed by XRPD and HPLC at the onset (day 0), week 1 and week 2.

[3] = Measurement of hygroscopicity by dynamic vapor sorption (DVS); settings: FIGS. 22 and 23
Experimental: Using DVS intrinsic manufactured by SMS Co., Ltd, about 20 mg of the sample was tested for water sorption/desorption profiles at 25° C. under a 0%˜95%˜0% relative humidity (RH) cycle using the following parameters. • Temperature: T=25° C. • Equilibrium: dm/dt: 0.01%/min. • Range of RH (%) measurement step: 0%˜95%˜0%; RH(%) measurement step: 5%
Using the dynamic vapor sorption (DVS) test method described above, the hygroscopicity was measured for the hydrochloride salt prepared in Example 1 and the L-tartrate salt prepared in Example 8, and the results thereof were shown in FIGS. 22 and 23.

[4] = SGF, simulated gastric fluid, SGF

Solubility-1 h Concentration ([1]; FaSSIF) [µg/mL]	Solubility-24 h Concentration ([1]; FaSSIF) [µg/mL]	Assay % ([2]; onset (day 0)) [%]	stability under harsh conditions (in words) [2]	Assay % ([2]; week 1) [%]	hygroscopicity (in words) [3]	solubility at 1 h ([1]; FeSSIF, fessif, FeSSIF) [µg/mL]	solubility at 24 h ([1]; FeSSIF, fessif, FeSSIF) [µg/mL]	solubility at 1 h [1, 4] [µg/mL]	solubility at 24 h [1, 4] [µg/mL]	solubility at 1 h ([1]; water, water, water) [µg/mL]	solubility at 24 h ([1]; water, water, water) [µg/mL]	solubility at 1 h ([1]; FaSSIF, fassif, FaSSIF) [µg/mL]	solubility at 24 h ([1]; FaSSIF, fassif, FaSSIF) [µg/mL]	Compound	also measured
1440 (≈ 3.55 mM)	1440 (≈ 3.55 mM)	100.00	high impurity content	87.44	–	–	–	–	–	–	–	–	–	CNCc1cn(S(=O)(=O)c2ccc(OC)nc2)c(-c2ccccc2F)c1OC [Free base, 1-(5-(2-fluorophenyl)-4-methoxy-1-((6-methoxypyridin-3-yl)sulfonyl)-1H-pyrrole-3-yl)-N-methylmethanamine]	Solubility-1 h Concentration ([1]; FeSSIF): 4570 µg/mL (≈ 11.3 mM); Solubility-24 h Concentration ([1]; FeSSIF): 4770 µg/mL (≈ 11.8 mM); Solubility-1 h Concentration ([1]; SGF): >10000 µg/mL; Solubility-24 h Concentration ([1]; SGF): >10000 µg/mL; Solubility-1 h Concentration ([1]; water): 8560 µg/mL (≈ 21.1 mM); Solubility-24 h Concentration ([1]; water): 8630 µg/mL (≈ 21.3 mM); HPLC peak RRT 1.07 ([2]; onset (day 0)): 0.66%; HPLC peak RT 10.063 min, RRT 1.00 (main peak) ([2]; onset (day 0)): 93.15; HPLC peak RRT 1.07 ([2]; week 1): 0.57%; HPLC peak RT 6.797 min, RRT 0.68 ([2]; week 1): 0.43%; HPLC peak RT 7.563 min, RRT 0.75 ([2]; week 1): 1%; HPLC peak RT 10.277 min, RRT 1.02 ([2]; week 1): 9.95%; HPLC peak RRT 0.93 ([2]; week 2): 0.14%; HPLC peak RT 10.063 min, RRT 1.00 (main peak) ([2]; week 2): 65.00
9710	5920	100.50	excellent stability	106.14	very low hygroscopicity	4450	4370	> 10000	> 10000	> 10000	> 10000	–	–	CNCc1cn(S(=O)(=O)c2ccc(OC)nc2)c(-c2ccccc2F)c1OC [Hydrochloride salt, hydrochloride salt of 1-(5-(2-fluorophenyl)-4-methoxy-1-((6-methoxypyridin-3-yl)sulfonyl)-1H-pyrrole-3-yl)-N-methylmethanamine]	solubility in FaSSIF (in words) ([1]; fasted state simulated intestinal fluid): very good
–	–	–	–	–	very low hygroscopicity	4550	4540	> 10000	> 10000	> 10000	> 10000	8160	> 10000	CNCc1cn(S(=O)(=O)c2ccc(OC)nc2)c(-c2ccccc2F)c1OC.O=C(O)C(O)C(O)C(=O)O [L-tartrate salt, L-tartrate salt of 1-(5-(2-fluorophenyl)-4-methoxy-1-((6-methoxypyridin-3-yl)sulfonyl)-1H-pyrrole-3-yl)-N-methylmethanamine]	–
–	–	–	–	–	–	4780	4720	> 10000	> 10000	> 10000	> 10000	8100	> 10000	CNCc1cn(S(=O)(=O)c2ccc(OC)nc2)c(-c2ccccc2F)c1OC.O=C(O)CCC(=O)O [Succinate salt, succinate salt of 1-(5-(2-fluorophenyl)-4-methoxy-1-((6-methoxypyridin-3-yl)sulfonyl)-1H-pyrrole-3-yl)-N-methylmethanamine]	–

Reference: patent publication US20250042872A1, “NOVEL SALT OF 1-SULFONYL PYRROLE DERIVATIVE, METHOD FOR PREPARING SAME, AND PHARMACEUTICAL COMPOSITION INCLUDING SAME” (ILDONG PHARMACEUTICAL CO., LTD., priority 2021, published 2025)
